From patent publication US7465576B2, “Method for treating periodontal disease with a bacteriocidal disinfectant” (priority 2004, dated 2008)
Where “and” joins values, the source holds several entries; their conditions need not be identical. Equal entries are not always repeated. Where two headings read alike, the source gives them in different places.

Assays:
[1] = tested on: acid-fast bacteria; type: cell-based
[2] = tested on: spores of sporulating bacteria; type: cell-based
[3] = tested on: MRSA or E. coli O-157; type: cell-based; conditions: organic substance exceeding 50 ppm
[4] = tested on: putrefying bacteria in cooked rice; test: Viable cell numbers in prepared food after spraying (Test Example 3); type: cell-based
Excerpt: (§1) With regards to the putrefaction process of prepared food, we investigated whether or not the present bactericidal disinfectant could stop the progress of putrefaction when sprayed of food, and the degree of that bactericidal effect. Normally disinfectants are not applied to prepared food, but very often scraps of food become lodged in a periodontal pocket, providing a nutritional source for bacteria, and since the present bactericidal disinfectant is composed of compounds which are recognized as food additives, it is important to assess these effects. Just-prepared cooked rice, tofu (soybean curd), spinach with sesame dressing, and fried meat and vegetables were each crushed, homogenized, and left at 28° C. for use as the samples. After samples had been left for 5 hours, part of each was taken and used to measure bacterial viable cell number, while the respective disinfectants were sprayed uniformly on the remaining samples. Viable cell numbers were measured 1, 2 and 24 hours after spraying. Water alone was sprayed as a control. After samples had been left for 24 hours part of each was taken for measuring viable cell number, and the respective disinfectants were sprayed uniformly on the remaining samples. As when the samples were left for 5 hours, viable cell numbers were measured 1 hour, 2 hours and 24 hours after spraying. Water alone was sprayed as a control. Viable cell numbers were measured by the poured plate method using 5 g of each sample diluted by ordinary methods.
(§2) The degree of putrefaction of course differs depending on the preparation method, ingredients and environment, but in the case of the cooked rice in this experiment, the viable cell number immediately after preparation was […] cells/g of sample, rising to 1×10^3 cells/g of sample after 5 hours, 5×10^5 cells/g of sample after 24 hours and 7×10^6 cells/g of sample after 48 hours. In the case of the tofu (soybean curd), the initial viable cell number was 2×10^4 cells/g of sample, rising to 8×10^5 cells/g of sample after 5 hours, 9×10^7 cells/g of sample after 24 hours, and 1×10^9 cells/g of sample after 48 hours, with considerable putrefaction. In the case of the spinach with sesame dressing, the viable cell number was 2×10^3 cells/g of sample immediately after preparation, rising to 5×10^4 cells/g of sample after 5 hours, 3×10^7 cells/g of sample after 24 hours and 2×10^8 cells/g of sample after 48 hours. In the case of the fried meat and vegetables, it was […] cells/g of sample immediately after preparation, rising to 2×10^3 cells/g of sample after 5 hours and 2×10^8 cells/g of sample after 24 hours, at which point there was a slight smell of putrefaction, while after 48 hours putrefaction has progressed still further and the viable cell number had risen to 3×10^9 cells/g of sample.

[5] = tested on: putrefying bacteria in fried meat and vegetables; test: as above; type: cell-based
Excerpt: as §1, §2

[6] = tested on: putrefying bacteria in spinach with sesame dressing; test: as above; type: cell-based
Excerpt: as §1, §2

[7] = tested on: putrefying bacteria in tofu (soybean curd); test: as above; type: cell-based
Excerpt: as §1, §2

[8] = tested on: putrefying bacteria in prepared food; test: Viable cell numbers in prepared food after spraying (Test Example 3), summary; type: cell-based
Excerpt: With regards to the putrefaction process of prepared food, we investigated whether or not the present bactericidal disinfectant could stop the progress of putrefaction when sprayed of food, and the degree of that bactericidal effect. Normally disinfectants are not applied to prepared food, but very often scraps of food become lodged in a periodontal pocket, providing a nutritional source for bacteria, and since the present bactericidal disinfectant is composed of compounds which are recognized as food additives, it is important to assess these effects. Just-prepared cooked rice, tofu (soybean curd), spinach with sesame dressing, and fried meat and vegetables were each crushed, homogenized, and left at 28° C. for use as the samples. […] Water alone was sprayed as a control. […] Water alone was sprayed as a control. […] Consequently, although complete eradication was not achieved, it can be said that bactericide was largely achieved. That is, there is the ability to halt development of putrefying bacteria in food and a bactericidal effect.

[9] = tested on: plaque adhering to supragingival calculus; test: Viable cell numbers in plaque soaked in disinfectant (Test Example 4); type: cell-based; conditions: 60 minutes of immersion
[10] = tested on: detached skin wounds of mice; test: Recovery from skin damage (Test Example 5); type: in vivo; conditions: applied to wound twice a day
[11] = tested on: thumbnails of volunteers; test: Elongation of thumbnails (Test Example 7); type: in vivo, human; conditions: for Elongation of nails: Left (treated) thumbnail
Excerpt: As a general rule the bacterial disinfectants were applied immediately after hand washing. Nail growth and shape are closely tied to individual physical condition, and are a benchmark of health.

[12] = tested on: Red worms
Experimental: Red worms with a mean length of 40 mm were prepared in groups of 10, the annuli of the red worms were severed with a cutter, and ordinary concentrations of the various bactericidal disinfectants contained in absorbent cotton were applied to the severed ends twice a day, morning and night. Application to the ends was continued even after the severed ends healed, and recovery and growth were observed. Water was applied as a control.

[13] = tested on: plaque adhering to subgingival calculus; test: Viable cell numbers in plaque soaked in disinfectant (Test Example 4); type: cell-based; conditions: 60 minutes of immersion
[14] = sprayed after 5 hours, 1 hr after spraying
[15] = sprayed after 5 hours, 2 hrs after spraying
[16] = sprayed after 5 hours, 24 hrs after spraying
[17] = sprayed after 5 hours, just after spraying
[18] = sprayed after 24 hours, 1 hr after spraying
[19] = sprayed after 24 hours, 2 hrs after spraying
[20] = sprayed after 24 hours, 24 hrs after spraying
[21] = sprayed after 24 hours, just after spraying
[22] = 5 days after severing, 20 mm when severed

For `OO` [3% aqueous hydrogen peroxide, hydrogen peroxide], the “time required to kill acid-fast bacteria” value [1] was “a minute or more”, the effect against spores [2] was “ineffective” and the “bactericidal effect in presence of organic substance” value (shortened to “bactericidal effect in presence”) [3] was “A similar tendency was seen”. The viable cell number [4, 14] was 1 × 10^2 cells/g of sample, the viable cell number [4, 15] was 1.8 × 10^2 cells/g of sample and the viable cell number [4, 16] was 5 × 10^4 cells/g of sample. For the same molecule, the viable cell number [4, 17] was 2 × 10^2 cells/g of sample, the viable cell number [4, 18] was 9 × 10^3 cells/g of sample and the viable cell number [4, 19] was 2 × 10^4 cells/g of sample. The viable cell number [4, 20] was 8 × 10^5 cells/g of sample, the viable cell number [4, 21] was 4 × 10^4 cells/g of sample and the viable cell number [5, 14] was 2 × 10^2 cells/g of sample. The viable cell number [5, 15] was 4 × 10^2 cells/g of sample, the viable cell number [5, 16] was 5 × 10^6 cells/g of sample and the viable cell number [5, 17] was 5 × 10^2 cells/g of sample. For the same molecule, the viable cell number [5, 18] was 5 × 10^4 cells/g of sample, the viable cell number [5, 19] was 1 × 10^5 cells/g of sample and the viable cell number [5, 20] was 4 × 10^8 cells/g of sample. For the same molecule, the viable cell number [5, 21] was 6 × 10^6 cells/g of sample, the viable cell number [6, 14] was 4 × 10^2 cells/g of sample and the viable cell number [6, 15] was 5 × 10^2 cells/g of sample. The viable cell number [6, 16] was 1 × 10^5 cells/g of sample, the viable cell number [6, 17] was 1 × 10^3 cells/g of sample and the viable cell number [6, 18] was 5 × 10^3 cells/g of sample. The viable cell number [6, 19] was 5 × 10^3 cells/g of sample, the viable cell number [6, 20] was 7 × 10^6 cells/g of sample and the viable cell number [6, 21] was 4 × 10^4 cells/g of sample. The viable cell number [7, 14] was 2 × 10^3 cells/g of sample, the viable cell number [7, 15] was 3 × 10^4 cells/g of sample and the viable cell number [7, 16] was 6 × 10^6 cells/g of sample. The viable cell number [7, 17] was 5 × 10^4 cells/g of sample, the viable cell number [7, 18] was 3 × 10^4 cells/g of sample and the viable cell number [7, 19] was 5 × 10^4 cells/g of sample. For the same molecule, the viable cell number [7, 20] was 1 × 10^8 cells/g of sample, the viable cell number [7, 21] was 7 × 10^5 cells/g of sample and the “bactericidal effect on putrefying bacteria in food” value [8] was “most of the bacteria survived immediately after spraying”. The “survival of bacteria living inside plaque” value [9] was “half survived”, the “Recovery: Complete recovery (coat grown back)” value (shortened to “Recovery: Complete recovery”) [10] was 40 days and the “Recovery: Skin with roughly original thickness” value (“Recovery: Skin” for short) [10] was 15 days. For the same molecule, the “Recovery: Thin skin overall” value [10] was 5 days, the Elongation of nails ([11]; 10 days) was 0.9 mm and the Elongation of nails ([11]; 20 days) was 1.8 mm. The Elongation of nails ([11]; 30 days) was 2.7 mm, the Elongation of nails ([11]; 40 days) was 3.6 mm and the Elongation of nails ([11]; 50 days) was 4.5 mm. For the same molecule, the Elongation of nails ([11]; 60 days) was 5.4 mm, the “difference in elongation between right and left hands” value ([11]; applied for 2 months) was “No significant differences in elongation” and the “length of severed red worms” value [12, 22] was 21 mm. The “length of severed red worms” value ([12]; 10 days after severing) was 22 mm, the “length of severed red worms” value ([12]; 15 days after severing) was 23 mm and the “length of severed red worms” value ([12]; 20 days after severing) was 24 mm. For the same molecule, the “length of severed red worms” value ([12]; 30 days after severing) was 25 mm, the “length of severed red worms” value ([12]; 40 days after severing) was 27 mm and the “length of severed red worms” value ([12]; 50 days after severing) was 28 mm. For the same molecule, the Deaths ([12]; groups of 10 red worms) was 7.

With `CC(O)C(=O)O.CCOc1ccc2nc3cc(N)ccc3c(N)c2c1` [Acrinol, acrinol] the “bactericidal effect in presence” value [3] was “A similar tendency was seen”, the “survival of bacteria living inside plaque” value [9] was “half survived” and the “Recovery: Complete recovery” value [10] was 40 days. The “Recovery: Skin” value [10] was 15 days, the “Recovery: Thin skin overall” value [10] was 5 days and the Elongation of nails ([11]; 10 days) was 0.8 mm. The Elongation of nails ([11]; 20 days) was 1.6 mm, the Elongation of nails ([11]; 30 days) was 2.4 mm and the Elongation of nails ([11]; 40 days) was 3.3 mm. The Elongation of nails ([11]; 50 days) was 4.0 mm, the Elongation of nails ([11]; 60 days) was 4.8 mm and the “length of severed red worms” value [12, 22] was 21 mm. The “length of severed red worms” value ([12]; 10 days after severing) was 22 mm, the “length of severed red worms” value ([12]; 15 days after severing) was 23 mm and the “length of severed red worms” value ([12]; 20 days after severing) was 24 mm. The “length of severed red worms” value ([12]; 30 days after severing) was 27 mm, the “length of severed red worms” value ([12]; 40 days after severing) was 29 mm and the “length of severed red worms” value ([12]; 50 days after severing) was 30 mm. It also gave a Deaths ([12]; groups of 10 red worms) of 8.

With `N=C(NCCCCCCNC(=N)NC(=N)Nc1ccc(Cl)cc1)NC(=N)Nc1ccc(Cl)cc1` [Hibitane] the “effect against acid-fast bacteria” value [1] was “ineffective”, the effect against spores [2] was “ineffective” and the “bactericidal effect in presence” value [3] was “the bacteria did not die after 1 minute of contact”. For the same molecule, the viable cell number [4, 17] was 1 × 10^2 cells/g of sample, the viable cell number [4, 18] was 7 × 10^2 cells/g of sample and the viable cell number [4, 19] was 5 × 10^2 cells/g of sample. For the same molecule, the viable cell number [4, 20] was 4 × 10^3 cells/g of sample, the viable cell number [4, 21] was 1 × 10^4 cells/g of sample and the viable cell number [5, 16] was 5 × 10^3 cells/g of sample. For the same molecule, the viable cell number [5, 17] was 2 × 10^2 cells/g of sample, the viable cell number [5, 18] was 5 × 10^2 cells/g of sample and the viable cell number [5, 19] was 2 × 10^2 cells/g of sample. For the same molecule, the viable cell number [5, 20] was 5 × 10^4 cells/g of sample, the viable cell number [5, 21] was 7 × 10^4 cells/g of sample and the viable cell number [6, 16] was 6 × 10^2 cells/g of sample. For the same molecule, the viable cell number [6, 17] was 2 × 10^2 cells/g of sample, the viable cell number [6, 18] was 2 × 10^2 cells/g of sample and the viable cell number [6, 19] was 1 × 10^2 cells/g of sample. For the same molecule, the viable cell number [6, 20] was 8 × 10^3 cells/g of sample, the viable cell number [6, 21] was 3 × 10^4 cells/g of sample and the viable cell number [7, 16] was 2 × 10^2 cells/g of sample. The viable cell number [7, 17] was 8 × 10^2 cells/g of sample, the viable cell number [7, 18] was 5 × 10^2 cells/g of sample and the viable cell number [7, 19] was 2 × 10^2 cells/g of sample. For the same molecule, the viable cell number [7, 20] was 3 × 10^3 cells/g of sample, the viable cell number [7, 21] was 5 × 10^4 cells/g of sample and the “bactericidal effect on putrefying bacteria in food” value [8] was “no bactericidal effect in the real sense”. The “survival of bacteria living inside plaque” value [9] was “half survived”, the “survival of bacteria in plaque” value [13] was “continued to survive” and the “Recovery: Thin skin overall” value [10] was 5 days. The “Recovery: Complete recovery” value ([10]; listed as Hibitane gel) was 40 days and 38 days, the “Recovery: Skin” value ([10]; listed as Hibitane gel) was 12 days and the Elongation of nails ([11]; 10 days) was 0.8 mm. For the same molecule, the Elongation of nails ([11]; 20 days) was 1.7 mm, the Elongation of nails ([11]; 30 days) was 2.5 mm and the Elongation of nails ([11]; 40 days) was 3.3 mm. The Elongation of nails ([11]; 50 days) was 4.2 mm, the Elongation of nails ([11]; 60 days) was 5.0 mm and the “length of severed red worms” value [12, 22] was 21 mm. For the same molecule, the “length of severed red worms” value ([12]; 10 days after severing) was 22 mm, the “length of severed red worms” value ([12]; 15 days after severing) was 23 mm and the Deaths ([12]; in vivo) was 10.
